Results: PMC9585585, “Discovery of Small-Molecule Allosteric Inhibitors of PfATC as Antimalarials” (Journal of the American Chemical Society, 2022)
Where “and” joins values, the source holds several entries; their conditions need not be identical. Equal entries are not always repeated. Where two headings read alike, the source gives them in different places.

How the values were obtained:
PfATC = PfATC (Plasmodium falciparum, UniProt A0A5K1K910); assay: biochemical; conditions: for IC50: in vitro activity assay, PfATC 50 nM, 2 mM CP, 1 mM aspartate, read-out: PfATC IC50
Experimental: Following washing with Lysis buffer
Excess imidazole was removed and the His-tag was cleaved
400Then, the sample was loaded onto a 5 ml HiTrap SP HP column (GE Healthcare, USA) and
410PfATC activity assay. Enzymatic reactions were performed in a total volume of 150 µL in 50 mM
Small-molecule dose-response curves were
The reactions were initiated by adding CP and quenched after 10 min with
After plates were sealed with transparent sealing
420tape to prevent evaporation and incubated overnight in the dark place at room temperature. After
Analyses were performed using
The enzymatic assay was performed as described herein above for
Briefly, the reaction was carried out at room
The reaction was initiated by
Then the plate was covered by sealing
430tape and kept in dark place at room temperature and then heated to 95 °C for 15min in dark and kept

P. falciparum 3D7 = assay: Growth-inhibition assay of P. falciparum (SYBR Green I); assay type: cell-based, Plasmodium falciparum; conditions: P. falciparum 3D7, 96 h, read-out: EC50 against blood stage 3D7 cultures
Experimental: 488Cell culture and growth-inhibition assay of P. falciparum. P. falciparum 3D7 parasites
489(Wellcome Trust Dundee) were maintained in continuous culture at 37 °C and an atmosphere
490consisting of 90% N 2, 5% O2, and 5% CO2 as described previously 30 with modifications.31
491Parasites were maintained in 25 mM 4-(2-hydroxyethyl)-1-piperazineethanesulfonic acid (HEPES)
492and 11.9 mM sodium bicarbonate buffered RPMI 1640 medium supplemented with D-glucose
493(11 mM), hypoxanthine, AlbuMAX-I (0.5% w/v), and 10 µg/mL gentamicin. 0+ blood was
494provided by “Hospital Novo Atibaia” (Brazil) in agreement with the ethics committee at ICB-USP.
495Compounds were tested for their inhibitory effect against P. falciparum 3D7 conducting SYBR
496Green I (Invitrogen) drug assays as reported. 32, 33 Briefly, two-fold serial dilutions of compounds
497were prepared in 96-well plates starting from 100 and 20 µM in technical triplicate and incubated
498for 96 h under normal growth conditions using an initial parasitemia of 0.5% and a hematocrit of
4992% in a volume of 100 µL per well. Parasite proliferation was measured by quantifying DNA via
500SYBR Green I emitted fluorescence in the wells after addition of 100 µL lysis buffer supplemented
501with SYBR Green I (0.02% v/v) and incubation for 1 h at room temperature in the dark.
502Fluorescence was quantified using a CLARIOstar plate reader (BMG Labtech, Germany) at
503excitation and emission wavelength bands of 485 (± 9) and 530 (± 12) nm, respectively. Focal and
504gain adjustment was performed using the negative controls (highest expected fluorescence signal).
505Data was acquired via the CLARIOstar (V5.20) and MARS software, manually normalized, and
506plotted using the nonlinear regression curve fit implemented in GraphPad Prism as described below
507in more detail. Non-treated parasites, highest solvent concentration on parasites, and highest drug
508concentration in medium were used as controls for maximal growth, solvent control, and native
509drug fluorescence, respectively.
511Nonlinear regression fit and analysis of dose-response drug assays. Nonlinear regression as
512implemented in GraphPad Prism 8.4.3 (log(inhibitor) vs. response – Variable slope (four
513parameters)) was used to fit the measured data to interpolate the IC 50 value from the curve. No
514specific model was applied. Data was pre-processed by min-max-scaling according to the
517where y is the fluorescence signal in each well, y minimum the background fluorescence, and ymaximum
518the highest measured fluorescence signal in the untreated wells. Drug concentrations (in µM) were
519transformed to the log(10)of the values. Means of each independent experiment were plotted as
520individual values, and the SD of the mean from the means shown as error bars. The test for
521homoscedasticity was performed to confirm if no weighting of values was appropriate.

PfATC, sequence (A0A5K1K910 entry or part of it): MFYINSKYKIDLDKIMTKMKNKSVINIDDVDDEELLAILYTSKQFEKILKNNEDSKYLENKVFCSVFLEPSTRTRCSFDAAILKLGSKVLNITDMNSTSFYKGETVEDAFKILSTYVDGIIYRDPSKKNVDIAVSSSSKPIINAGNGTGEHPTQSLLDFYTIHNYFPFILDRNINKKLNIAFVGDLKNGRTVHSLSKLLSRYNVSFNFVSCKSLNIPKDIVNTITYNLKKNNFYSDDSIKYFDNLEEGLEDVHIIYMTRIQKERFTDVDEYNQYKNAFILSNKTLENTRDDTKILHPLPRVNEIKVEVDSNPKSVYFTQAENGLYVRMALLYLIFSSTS

IC50 (PfATC) | mechanism of inhibition (PfATC; with CP and Asp, 0, 200 and 400 nM BDA-04, one substrate fixed (2 mM CP or 1 mM Asp)) | EC50 (P. falciparum 3D7) | EC50 (P. falciparum 3D7; Plasmodium falciparum, 3D7, 96 h) [nM] | SMILES
77.2 nM | noncompetitive inhibitor | 2430 nM | 2400 | CC(C)(C)OC(=O)Nc1sc(-c2ccccc2)cc1C(=O)NCCc1ccccc1 [BDA-04]
45.6 nM and 46 nM and 45.7 nM |  | 3400 nM and 3370 nM |  | CC(C)(C)OC(=O)Nc1sc(-c2ccccc2)cc1C(=O)NCCc1ccc(O)cc1 [BDA-11]
103 nM |  | 2000 nM and 2030 nM |  | COc1cccc(CCNC(=O)c2cc(-c3ccccc3)sc2NC(=O)OC(C)(C)C)c1 [BDA-24]

SMILES | IC50 (PfATC) | mechanism of inhibition (PfATC; with CP and Asp, 0, 200 and 400 nM BDA-04, one substrate fixed (2 mM CP or 1 mM Asp)) | EC50 (P. falciparum 3D7) | EC50 (P. falciparum 3D7; Plasmodium falciparum, 3D7, 96 h) [nM]
CC(C)(C)OC(=O)Nc1sc(-c2ccccc2)cc1C(=O)NCCO [BDA-14] | 115 nM and 114 nM |  | 42500 nM | 
